Experiments:
Assay type in all cases: biochemical
Human plasma kallikrein = target: T1, Human plasma kallikrein (Homo sapiens, UniProt P03952); assay: Ki determination, human plasma kallikrein (H-D-Prolyl-Phe-Arg-pNA); details: 50 mM Tris-HCl, pH 7.8, 200 mM NaCl, 0.05% BSA; read-out: Experimentally Determined Ki, Plasma Kallikrein
T1 construct: from tissue; host or cells: human plasma
Procedure: (§1) Protease inhibition was assayed according to published procedures with minor modifications using various proteases and specific chromogenic peptide p-nitroanilide substrates. Assays were performed in Costar ultra-low cluster 96-well microtiter plate (Costar Corning Corp., Cambridge Mass.). Each protease was incubated with various concentrations of the test compound for 15 min. at 37° C. or as otherwise indicated, in specific assay buffer, and the residual activity was then measured by addition of the substrate. p-Nitroaniline produced by the proteolysis was determined by measuring the change in absorbance at 405 nm on a SpectraMAX 340 plate reader (Molecular devices, Sunnyvale, Calif.).
(§2) 1. The inhibition constant, Ki is calculated from individual data points using the equation for a tight-binding inhibitor (See Beith, "Proteinase Inhibitors-Proceedings of 2nd Int. Res. Conference", Fritz, et al. eds, New York, p.4463-4469 (1974)):
(§3) vi /vo [((Ki '+[I]+[E]o)^2 -4 [I]o
(§4) [E]o)^1/2 (Ki '+[I]o -[E]o)]/2[E]o
(§5) where Ki ' is apparent inhibition constant; vi and vo are the inhibited and uninhibited rates, respectively; [I]o and [E]o are the total concentrations of inhibitor and enzyme, respectively.
(§6) [note: [E]o is determined by active site titration of enzyme]
(§7) The Ki values are obtained by correcting Ki ' values for the effect of substrate concentration according to: [formula]
(§8) 2. Other inhibition data (Ki >>[E]o), the Ki is calculated from using the equations for a competitive inhibitor: [formula]
(§9) I. Human Plasma and r-Tissue Kallikrein
(§10) Human plasma and r-tissue kallikrein activity were determined in 50 mM Tris-HCl, pH 7.8, 200 mM NaCl, 0.05% BSA by using H-D-Prolyl-Phe-Arg-pNA and DL-Val-Leu-Arg-pNA, respectively (See Lottenberg, et al., Meth. Enzymol. 80, 341-361 (1981)).
(§11) The inhibition constant (Ki) of the test compounds against each proteolytic enzyme was determined according to Zitnik et al., Biochem. Biophys. Res. Commun. 232, 687-697 (1997)).

Human lung tryptase = assay: Ki determination, human lung tryptase (Tosyl-Gly-Pro-Arg-pNA substrate); details: 50 mM Tris-HCl pH 8.0, 37° C., 1 nM tryptase, 320 μM GPR-pNA; read-out: Experimentally Determined Ki, Tryptase
Procedure: as §1, §2, §3, §4, §5, §6, §7, §8
Human lung tryptase purchased from Cortex Biochem (San Leandro, Calif.) was purified further on a Superdex 200 gel-filtration column. The active-site concentration of the enzyme was determined by spectrophotometric titration with 4-nitrophenyl 4'-guanidinobenzoate according to Schwartz, et al., J. Immunol., 114, 2304-2311 (1990). Tryptase activity was measured according to the procedures of Schwartz, et al., J. Biol. Chem., 261, 7372-7379 (1986) (See also, Schwartz, L. B., Methods In Enzymology, 244, 88 (1994)) with minor modifications, using Tosyl-Gly-Pro-Arg-p-nitroanilide ("GPR-pNA", Sigma Chemical Co., St. Louis, Mo., T-1637) as a chromogenic substrate. The reaction was performed in 50 mM Tris-HCl, pH 8.0, containing 150 mM NaCl and 0.02% Triton X-100 at 37° C. in Costar ultra-low cluster 96-well microtiter plates (Costar Corning Corp., Cambridge, Mass.). The amount of pNA produced by tryptase was determined by measuring the change in absorbance at 405 nm on a SpectraMAX 340 plate reader (Molecular devices, Sunnyvale, Calif.). The Km for the substrate was determined by Lineweaver-Burk analysis from initial velocities of substrate hydrolysis. The inhibition assay was carried out in a total volume of 200 μL. Tryptase (30 μL- final concentration 1 nM) was incubated with various concentrations of sample compound (50 μL) to be tested in the above assay buffer for 5 min. The reaction was started by the addition of substrate GPR-pNA (40 μL-final concentration 320 μM), and the residual activity was measured after 15 min. of incubation. The inhibition constant, Ki, was determined by fitting the inhibition data to a two-site competitive binding equation using data analysis program GraphPad PRISM (GraphPad Software, Inc., San Diego, Calif.).
as §11

Human plasma thrombin = target: T2, Human plasma thrombin (Homo sapiens, UniProt P00734); assay: Ki determination, human plasma thrombin (H-D-Phe-Pip-Arg-pNA); details: 50 mM Tris-HCl, pH 8.3, 100 mM NaCl, 1% BSA; read-out: Experimentally Determined Ki, Thrombin
T2 construct: from tissue; host or cells: human plasma
Procedure: as §1, §2, §3, §4, §5, §6, §7, §8
Human plasma thrombin activity was determined by using H-D-Phe-Pip-Arg-pNA in 50 mM Tris-HCl, pH 8.3, 100 mM NaCl, 1% BSA (See Lottenberg, et al. Meth. Enzymol. 80, 341-361 (1981)).
as §11

r-tissue kallikrein = r-tissue kallikrein (Homo sapiens, UniProt P06870); assay: Ki determination, r-tissue kallikrein (DL-Val-Leu-Arg-pNA); details: 50 mM Tris-HCl, pH 7.8, 200 mM NaCl, 0.05% BSA; read-out: Experimentally Determined Ki, Tissue Kallikrein
Procedure: as §1, §2, §3, §4, §5, §6, §7, §8, §9, §10, §11

T1 sequence (P03952 391-638 limits assumed): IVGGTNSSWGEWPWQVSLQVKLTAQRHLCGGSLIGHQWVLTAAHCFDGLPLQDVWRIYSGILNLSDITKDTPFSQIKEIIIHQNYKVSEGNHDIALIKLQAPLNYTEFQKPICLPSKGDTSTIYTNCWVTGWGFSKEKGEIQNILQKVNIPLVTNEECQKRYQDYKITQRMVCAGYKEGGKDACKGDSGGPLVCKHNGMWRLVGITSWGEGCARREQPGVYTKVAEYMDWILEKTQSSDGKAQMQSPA
T1 sequence (P03952 20-390 partner limits assumed): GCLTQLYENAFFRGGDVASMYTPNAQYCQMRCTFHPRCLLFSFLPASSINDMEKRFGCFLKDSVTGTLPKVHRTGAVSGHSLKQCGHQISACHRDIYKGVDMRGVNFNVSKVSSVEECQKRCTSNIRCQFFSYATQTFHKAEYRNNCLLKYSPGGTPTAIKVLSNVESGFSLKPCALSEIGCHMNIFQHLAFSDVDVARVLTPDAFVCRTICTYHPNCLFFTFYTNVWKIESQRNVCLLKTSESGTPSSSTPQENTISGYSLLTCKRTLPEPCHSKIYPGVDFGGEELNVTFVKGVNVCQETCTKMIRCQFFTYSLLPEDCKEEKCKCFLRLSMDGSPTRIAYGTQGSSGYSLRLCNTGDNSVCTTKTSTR
Chain of r-tissue kallikrein (P06870 25-262): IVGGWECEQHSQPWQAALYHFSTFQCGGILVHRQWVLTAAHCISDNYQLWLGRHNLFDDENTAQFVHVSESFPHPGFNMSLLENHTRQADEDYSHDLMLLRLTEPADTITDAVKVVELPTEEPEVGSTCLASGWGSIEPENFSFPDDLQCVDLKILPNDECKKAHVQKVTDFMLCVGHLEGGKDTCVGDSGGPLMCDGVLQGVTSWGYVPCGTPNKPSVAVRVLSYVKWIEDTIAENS

Ki (Human plasma kallikrein)	Ki (Human lung tryptase)	Ki (Human plasma thrombin)	Ki (r-tissue kallikrein)	Structure (SMILES)
	0.01 µM	> 100 µM	> 100 µM	N=C(N)c1cccc(C(=O)NCc2ccc(OCCCCCCOc3ccc(CNC(=O)c4cccc(C(=N)N)c4)cc3)cc2)c1 [Example 57, 1,6-Bis-{4-[(3-carbamimidoyl-benzenecarbonylamino)-methyl]-phenoxy}-hexane]
46 µM	0.001 µM	> 100 µM	> 100 µM	N=C(N)c1ccc(C(=O)NCc2ccc(OCCCCCCCOc3ccc(CNC(=O)c4ccc(C(=N)N)cc4)cc3)cc2)cc1 [Example 58, 1,7-Bis-{4-[(4-carbamimidoyl-benzenecarbonylamino)-methyl]-phenoxy}-heptane]
72 µM	0.08 µM	> 100 µM	> 100 µM	N=C(N)c1cccc(C(=O)NCc2ccc(OCCCCCCCOc3ccc(CNC(=O)c4cccc(C(=N)N)c4)cc3)cc2)c1 [Example 59, 1,7-Bis-{4-[(3-carbamimidoyl-benzenecarbonylamino)-methyl]-phenoxy}-heptane]
6.3 µM	0.0002 µM	> 100 µM	> 100 µM	N=C(N)c1ccc(C(=O)NCc2ccc(OCCCCOc3ccc(CNC(=O)c4ccc(C(=N)N)cc4)cc3)cc2)cc1 [Example 60, 1,4-Bis-{4-[(4-carbamimidoyl-benzenecarbonylamino)-methyl]-phenoxy}-butane]
7.7 µM	0.01 µM	> 100 µM	> 100 µM	N=C(N)c1cccc(C(=O)NCc2ccc(OCCCCOc3ccc(CNC(=O)c4cccc(C(=N)N)c4)cc3)cc2)c1 [Example 61, 1,4-Bis-{4-[(3-carbamimidoyl-benzenecarbonylamino)-methyl]-phenoxy}-butane]
2.9 µM	0.0005 µM	> 100 µM	> 100 µM	N=C(N)c1ccc(C(=O)NCc2ccc(OCCCOc3ccc(CNC(=O)c4ccc(C(=N)N)cc4)cc3)cc2)cc1 [Example 62, 1,3-Bis-{4-[(4-carbamimidoyl-benzoylamino)-methyl]-phenoxy}-propane]
	0.02 µM	> 100 µM	> 100 µM	N=C(N)c1cccc(C(=O)NCc2ccc(OCCCOc3ccc(CNC(=O)c4cccc(C(=N)N)c4)cc3)cc2)c1 [Example 63, 1,3-Bis-{4-[(3-carbamimidoyl-benzoylamino)-methyl]-phenoxy}-propane]
7.3 µM	0.05 µM	> 100 µM	> 100 µM	N=C(N)c1ccc(C(=O)NCc2ccc(OCCOc3ccc(CNC(=O)c4ccc(C(=N)N)cc4)cc3)cc2)cc1 [Example 64, 1,2-Bis-{4-[(4-carbamimidoyl-benzoylamino)-methyl]-phenoxy}-ethane]
24 µM	0.35 µM	> 100 µM	> 100 µM	N=C(N)c1cccc(C(=O)NCc2ccc(OCCOc3ccc(CNC(=O)c4cccc(C(=N)N)c4)cc3)cc2)c1 [Example 65, 1,2-Bis-{4-[(3-carbamimidoyl-benzoylamino)-methyl]-phenoxy}-ethane]
2.8 µM	0.005 µM	21 µM	5 µM	N=C(N)c1ccc(C(=O)NCc2cccc(OCCCCCOc3cccc(CNC(=O)c4ccc(C(=N)N)cc4)c3)c2)cc1 [Example 76, 1,5-Bis-{3-[(4-carbamimidoyl-benzenecarbonylamino)-methyl]-phenoxy}-pentane]
1.7 µM	0.003 µM	> 100 µM	> 100 µM	N=C(N)c1ccc(C(=O)NCc2ccc(OCCCOc3ccc(CNC(=O)c4cccc(C(=N)N)c4)cc3)cc2)cc1 [Example 85, 4-Carbamimidoyl-N-[4-(3-{4-[(3-carbamimidoyl-benzoylamino)-methyl]-phenoxy}-propoxy)-benzyl]-benzamide]

The next lines start with the compound.

Structure (SMILES)	Ki (Human plasma kallikrein)	Ki (Human lung tryptase)	Ki (Human plasma thrombin)	Ki (r-tissue kallikrein)
N=C(N)c1cccc(S(=O)(=O)NCc2ccc(OCCCCCCOc3ccc(CNS(=O)(=O)c4cccc(C(=N)N)c4)cc3)cc2)c1 [Example 43, 1,6-Bis-{4-[(3-carbamimidoyl-benzenesulfonylamino)-methyl]-phenoxy}-hexane]	> 100 µM	0.11 µM	> 100 µM	> 100 µM
N=C(N)c1cccc(S(=O)(=O)NCc2ccc(OCCCCCCCOc3ccc(CNS(=O)(=O)c4cccc(C(=N)N)c4)cc3)cc2)c1 [Example 45, 1,7-Bis-{4-[(3-carbamimidoyl-benzenesulfonylamino)-methyl]-phenoxy}-heptane]	34 µM	0.8 µM	> 100 µM	> 100 µM
N=C(N)c1cccc(S(=O)(=O)NCc2ccc(OCCCOc3ccc(CNS(=O)(=O)c4cccc(C(=N)N)c4)cc3)cc2)c1 [Example 49, 3,1-Bis-{4-[(3-carbamimidoyl-benzenesulfonylamino)-methyl]-phenoxy}-propane]	6 µM	0.02 µM	> 100 µM	> 100 µM
N=C(N)c1cccc(S(=O)(=O)NCc2ccc(OCCOc3ccc(CNS(=O)(=O)c4cccc(C(=N)N)c4)cc3)cc2)c1 [Example 51, 1,2-Bis-{4-[(3-carbamimidoyl-benzenesulfonylamino)-methyl]-phenoxy}-ethane]	12 µM	0.03 µM	> 100 µM	> 100 µM
N=C(N)c1cccc(S(=O)(=O)NCc2ccc(COCc3ccc(CNS(=O)(=O)c4cccc(C(=N)N)c4)cc3)cc2)c1 [Example 53, 1,3-Bis-{4-[(3-carbamimidoyl-benzenesulfonylamino)-methyl]-phenyl}-2-oxapropane]	8.8 µM	0.1 µM	> 100 µM	> 100 µM
N=C(N)c1ccc(C(=O)NCc2ccc(COCc3ccc(CNC(=O)c4ccc(C(=N)N)cc4)cc3)cc2)cc1 [Example 66, 1,3-Bis-{4-[(4-carbamimidoyl-benzenecarbonylamino)-methyl]-phenyl}-2-oxapropane]	0.7 µM	0.38 µM	> 100 µM	> 100 µM
CN(Cc1ccc(OCCCOc2ccc(CN(C)S(=O)(=O)c3cccc(C(=N)N)c3)cc2)cc1)S(=O)(=O)c1cccc(C(=N)N)c1 [Example 68, 1,3-Bis-{4-[(3-carbamimidoyl-benzenesulfonyl-[N-methyl]-amino)-methyl]-phenoxy}-propane]	4.3 µM	0.02 µM	> 100 µM	> 100 µM
N=C(N)c1cccc(C(=O)NCc2cccc(OCCCCCOc3cccc(CNC(=O)c4cccc(C(=N)N)c4)c3)c2)c1 [Example 77, 1,5-Bis-{3-[(3-carbamimidoyl-benzenecarbonylamino)-methyl]-phenoxy}-pentane]	2.9 µM	0.01 µM	> 100 µM	32 µM
